The record followed here is patent US20240316051A1, “A PHARMACEUTICAL COMBINATION AND USE THEREOF” (Ascentage Pharma (Suzhou) Co., Ltd., priority 2021, published 2024).

The structures appear in SMILES notation. pIC50: −log10 of the molar value.

In the first assay the target is T1, EED (1-441)-His protein (Homo sapiens, UniProt O75530).
T1 construct: 20 nM EED (1-441)-His protein
T1 sequence (O75530 whole entry): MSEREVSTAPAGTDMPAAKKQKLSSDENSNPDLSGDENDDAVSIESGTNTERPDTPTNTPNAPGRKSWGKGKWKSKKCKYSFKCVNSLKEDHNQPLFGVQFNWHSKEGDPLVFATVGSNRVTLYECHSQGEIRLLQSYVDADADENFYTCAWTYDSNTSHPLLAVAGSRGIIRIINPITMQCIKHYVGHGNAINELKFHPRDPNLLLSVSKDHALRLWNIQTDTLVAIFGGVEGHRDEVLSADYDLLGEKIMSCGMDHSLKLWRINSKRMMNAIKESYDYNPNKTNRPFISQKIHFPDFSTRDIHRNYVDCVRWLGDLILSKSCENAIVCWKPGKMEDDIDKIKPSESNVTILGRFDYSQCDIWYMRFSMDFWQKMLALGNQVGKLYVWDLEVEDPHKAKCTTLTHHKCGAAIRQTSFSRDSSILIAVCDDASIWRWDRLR
In words: EED-H3K27Me3 peptide competition binding assay by AlphaScreen. The conditions noted are these: IC50 class, Table 4B, read-out: Alpha screen. How it is done:
EED-H3K27Me3 Peptide Competition Binding Assay by AlphaScreen (α-Screen):
The compounds at each concentration (2.5 μl of each) were transferred into a 384-well Perkin Elmer OptiPlate-384 white plates. 5 μl of solutions containing 20 nM EED (1-441)-His protein in the buffer (25 mM HEPES, pH 8, 0.02% Tween-20, 0.5% BSA) were added to the wells and then incubated with compound for 15 min. 2.5 μl of solutions containing 20 nM biotin-H3K27Me3 (19-33) peptide in the buffer (25 mM HEPES, pH 8, 0.02% Tween-20, 0.5% BSA) were added to the wells and then incubated with compound for 30 min. AlphaScreen detection beads mix was prepared immediately before use by mixing nickel chelate acceptor beads and streptavidin donor beads in a 1:1 ratio (Perkin Elmer, Product No. 6760619C/M/R) into the buffer described above. Then 10 μl of the detection beads mix was added to the plate and incubated in the dark at RT for 1 h. The final concentration of donor and acceptor beads was 10 μg/ml for each. Plates were read on CLARIOStar plate reader (BMG Labtech) using the AlphaScreen setting adapted for optimal signal detection with a 615 nm filter, after sample excitation at 680 nm. The emission signal at 615 nm was used to quantify compound inhibition. AlphaScreen signals were normalized based on the reading coming from the positive (maximum signal control) and negative controls (minimum signal control) to give percentage of activities left. The data were then fit to a dose response equation to get the IC50 values.
(In Alpha technology, singlet oxygen from a donor bead excites a nearby acceptor bead.)
On to `O=C1NCCc2ccccc2-c2cnc(NCc3c(F)ccc4c3CCO4)n3cnc1c23` [E 28, 13-(((5-fluoro-2,3-dihydrobenzofuran-4-yl)methyl)amino)-5,6-dihydro-2,4, 12, 13a-tetraazabenzo[4,5] cyclonona[1,2,3-cd]inden-3(4H)-one], for which the pIC50 is 7.00 to 8.00. On the same count and under the same terms, for `CC(C)c1ccc2c(n1)CN(CC(F)F)C(=O)c1ncn3c(NCc4c(F)ccc5c4CCO5)ncc-2c13` [E 47, 4-(2,2-difluoroethyl)-12-(((5-fluoro-2,3-dihydrobenzofuran-4-yl)methyl)amino)-7-isopropyl-4,5-dihydro-3H-2,4,6,11,12a-pentaazabenzo[4,5]cycloocta[1,2,3-cd]inden-3-one] the value was more than 8.00; for `[2H]C([2H])(Nc1ncc2c3c(ncn13)C(=O)N(CC(F)(F)F)Cc1cc(C(=O)N(C)C)ccc1-2)c1c(F)ccc2c1CCO2` [E 24, 12-(((5-fluoro-2,3-dihydrobenzofuran-4-yl)methyl-d2)amino)-N,N-dimethyl-3-oxo-4-(2,2,2-trifluoroethyl)-4,5-dihydro-3H-2,4,11,12a-tetraazabenzo[4, 5]cycloocta[1,2,3-cd]indene-7-carboxamide], 7.00 to 8.00; for `CCc1ccc2c(n1)CN(CC(F)(F)F)C(=O)c1ncn3c(NCc4c(F)ccc5c4CCO5)ncc-2c13` [E 12, 7-ethyl-12-(((5-fluoro-2,3-dihydrobenzofuran-4-yl)methyl)amino)-4-(2,2,2-trifluoroethyl)-4,5-dihydro-3H-2,4,6,11,12a-pentaazabenzo[4,5]cycloocta [1,2,3-cd]inden-3-one], more than 8.00. The same measure, in the same setting: then `CCc1ccc2c(n1)CN(CC(C)(F)F)C(=O)c1ncn3c(NCc4c(F)ccc5c4CCO5)ncc-2c13` [E 16, 4-(2,2-difluoropropyl)-7-ethyl-12-(((5-fluoro-2,3-dihydrobenzofuran-4-yl)methyl)amino)-4,5-dihydro-3H-2,4,6,11,12a-pentaazabenzo[4,5]cycloocta [1,2,3-cd]inden-3-one], with more than 8.00; and `CCc1ccc2c(n1)CN(CC(F)F)C(=O)c1ncn3c(NCc4c(F)ccc5c4CCO5)ncc-2c13` [E 13, 4-(2,2-difluoroethyl)-7-ethyl-12-(((5-fluoro-2,3-dihydrobenzofuran-4-yl)methyl)amino)-4,5-dihydro-3H-2,4,6,11,12a-pentaazabenzo[4,5]cycloocta [1,2,3-cd]inden-3-one], with more than 8.00.

The same assay, now with this note: Table 4A, read-out: Alpha screen.
Consider `O=C1c2ncn3c(NCc4c(F)ccc5c4CCO5)ncc(c23)-c2ccc(C(F)(F)F)nc2CN1CC1CCOC1` (stereo not drawn) [Compound 52, 12-(((5-fluoro-2,3-dihydrobenzofuran-4-yl)methyl)amino)-4-((tetrahydrofuran-3-yl)methyl)-7-(trifluoro-methyl)-4,5-dihydro-3H-2,4,6,11,12a-pentaaza benzo[4,5]cycloocta[1,2,3-cd]inden-3-one], for which the pIC50 is 9.15. On the same count and under the same terms, then `O=C1c2ncn3c(NCc4c(F)ccc5c4CCO5)ncc(c23)-c2ccc(C(F)(F)F)cc2CN1C1CC1` [Compound 67, 4-cyclopropyl-12-(((5-fluoro-2,3-dihydrobenzo-furan-4-yl)methyl)amino)-7-(trifluoromethyl)-4,5-dihydro-3H-2,4,11,12a-tetraazabenzo[4,5]cycloocta [1,2,3-cd]inden-3-one], with 8.54; and `CC(C)(O)CN1Cc2nc(C(F)(F)F)ccc2-c2cnc(NCc3c(F)ccc4c3CCO4)n3cnc(c23)C1=O` [Compound 58, 12-(((5-fluoro-2,3-dihydrobenzofuran-4-yl)methyl)amino)-4-(2-hydroxy-2-methylpropyl)-7-(trifluoro-methyl)-4,5-dihydro-3H-2,4,6,11,12a-pentaazabenzo [4,5]cycloocta[1,2,3-cd]inden-3-one], with 8.56; and `CC(F)(F)CN1Cc2cc(C(F)(F)F)ncc2-c2cnc(NCc3c(F)ccc4c3CCO4)n3cnc(c23)C1=O` [Compound 82, 4-(2,2-difluoropropyl)-12-(((5-fluoro-2,3-dihydrobenzofuran-4-yl)methyl)amino)-7-(trifluoromethyl)-4,5-dihydro-3H-2,4,8,11,12a-pentaazabenzo[4,5] cycloocta[1,2,3-cd]inden-3-one], with 7.98. The same measure, in the same setting: for `O=C1OCc2ccccc2-c2cnc(NCc3c(F)ccc4c3CCO4)n3cnc1c23` [Compound 6, 12-(((5-fluoro-2,3-dihydrobenzofuran-4-yl)methyl)amino)-3H,5H-4-oxa-2,11,12a-triazabenzo[4,5] cycloocta[1,2,3-cd]inden-3-one] the value was 9.72; for `O=C1c2ncn3c(NCc4c(F)ccc5c4CCO5)ncc(c23)-c2cnc(C(F)(F)F)cc2CN1CC1COCCO1` (stereo not drawn) [Compound 37, 4-((1,4-dioxan-2-yl)methyl)-12-(((5-fluoro-2,3-dihydrobenzofuran-4-yl)methyl)amino)-7-(trifluoro-methyl)-4,5-dihydro-3H-2,4,8,11,12a-pentaazabenzo [4,5]cycloocta[1,2,3-cd]inden-3-one], 9.03. For `Cc1nn(C)c2c1-c1cnc(NCc3c(F)ccc4c3CCO4)n3cnc(c13)C(=O)N(C1CC1)C2` [Compound 56, 4-cyclopropyl-11-(((5-fluoro-2,3-dihydrobenzo-furan-4-yl)methyl)amino)-6,8-dimethyl-5,6-dihydro-2,4,6,7,10,11a-hexaazacyclopenta[4,5]cycloocta [1,2,3-cd]inden-3(4H)-one], the pIC50 is 8.35. Same read-out and setting: then `O=C1OCc2ncccc2-c2cnc(NCc3c(F)ccc4occc34)n3cnc1c23` [Compound 10, 12-(((5-fluorobenzofuran-4-yl)methyl)amino)-3H, 5H-4-oxa-2,6,11,12a-tetraazabenzo[4,5]cycloocta [1,2,3-cd]inden-3-one], with 8.95; and `CN1CCC(CN2Cc3cc(C(F)(F)F)ncc3-c3cnc(NCc4c(F)ccc5c4CCO5)n4cnc(c34)C2=O)CC1` [Compound 38, 12-(((5-fluoro-2,3-dihydrobenzofuran-4-yl)methyl)amino)-4-((1-methylpiperidin-4-yl)methyl)-7-(trifluoromethyl)-4,5-dihydro-3H-2,4,8,11,12a-pentaazabenzo[4,5]cycloocta[1,2,3-cd]inden-3-one], with 8.90; and `O=C1c2ncn3c(NCc4c(F)ccc5c4CCO5)ncc(c23)-c2ccc(C(F)(F)F)nc2CN1CC1CC1` [Compound 55, 4-(cyclopropylmethyl)-12-(((5-fluoro-2,3-dihydrobenzofuran-4-yl)methyl)amino)-7-(trifluoromethyl)-4,5-dihydro-3H-2,4,6,11,12a-pentaazabenzo[4,5] cycloocta[1,2,3-cd]inden-3-one], with 8.67. As to `COc1cccc(F)c1CNc1ncc2c3c(ncn13)C(=O)N(C1CC1)Cc1nc(C(F)(F)F)ccc1-2` [Compound 69, 4-cyclopropyl-12-((2-fluoro-6-methoxybenzyl)amino)-7-(trifluoromethyl)-4,5-dihydro-3H-2,4,6, 11,12a-pentaazabenzo[4,5]cycloocta[1,2,3-cd] inden-3-one], the pIC50 was 7.70. `O=S1(=O)Cc2ncccc2-c2cnc(NCc3c(F)ccc4c3CCO4)n3cnc1c23` [Compound 94, 11-(((5-fluoro-2,3-dihydrobenzofuran-4-yl)methyl)amino)-4H-3-thia-2,5,10,11a-tetraazadibenzo [cd,f]azulene 3,3-dioxide]: the pIC50 is 7.85.
